Reference: patent publication US20080070256A1, “Non-Human Animal Models for B-cell Non-Hodgkin's Lymphoma and Uses Thereof” (NATIONAL JEWISH MEDICAL AND RESEARCH CENTER, priority 2006, published 2008)

What was measured:
[1] = test system: tumors derived from Eμ-MYC mice; assay: In vivo drug candidate test, transplanted Eμ-MYC tumors (no surface BCR); design: species or system mouse; details: treated for 7 days, starting 21 days after transplant
Source text: (§1) Cohorts of age and sex matched, syngeneic mice (C57/BL6) are given transplants of tumor cells administered by tail vein injection (inoculum ranges from 10^2-10^6 cells, but all of the mice in one cohort usually get the same dose of cells). The mice are observed daily for 14-21 days for presentation of externally evident clinical signs of hematological malignancies. These include splenomegaly and lymphadenopathy, dehydration, scruffy fur, hunched posture, labored breathing, and an ascending hind limb paralysis. When the mice are visibly sick, they begin treatment with the drug candidate. The mice are either analyzed 24 hours after the last dose of drug in order to ascertain the degree of remission caused by the drug, in an acute manner, or left in the vivarium to determine the extent of survival that is afforded by the treatment, over the normal rate of mortality for untreated, tumor-bearing mice.
In this experiment, cohorts of 10 mice each were given transplants of tumors derived from Eμ-MYC mice.

Raji cells [2] = assay: Apoptosis of Raji cells by propidium iodide stain (subdiploid population); type: cell-based, human; details: exposure in vitro
Source text: In order to validate the observations obtained in the mouse models of BL, the inventors tested whether the pharmacological inhibition of Syk in a human BL cell line (Raji) also results in the reduced viability of those cells. […] Similar results are observed upon the shRNA-mediated disruption of Syk expression in Raji cells.

Raji cells [3] = assay: MTS viability assay on Raji cells; type: cell-based, human; details: increasing concentrations
Experimental: (§2) The inventors obtained a highly specific pharmacological inhibitor of Syk through a collaboration with Rigel Pharmaceuticals. […] Also tested were the effects of the Syk kinase inhibitor on primary murine BL the inventors obtained from triply transgenic mice (Example 2). In addition, the effects of R408 were tested on three cell lines derived from human BL tumors (Raji, Ramos and Daudi). […] The cells and drug were incubated at a final volume of 200 μl in each well. Each condition was set up in triplicate wells, in any one experiment. […] The plates were read with a Molecular Dynamics ELISA plate reader, at OD 490. The data presented in FIGS. 29A-29D is from one experiment, representative of three independent assays. The error bars represent the standard deviations. […] The cells were cultured for 22 hours with the compound, and pulsed for the last 2 hours with MTS reagent. The O.D.490 absorbance of the wells was determined 24 hours after the beginning of the experiment. All conditions were tested in triplicate wells. The error bars represent the standard deviations of the triplicate wells.
In order to validate the observations obtained in the mouse models of BL, the inventors tested whether the pharmacological inhibition of Syk in a human BL cell line (Raji) also results in the reduced viability of those cells. […]

[4] = test system: murine BL cell lines (TBL-1, TBL-8, TBL-9, TBL-14); assay: MTS viability assay, murine BL cell lines; type: cell-based, mouse; details: 24 hours
Experimental: as §2
Using this approach, four primary tumors derived from Eμ-MYC/BCR^HEL/sHEL mice have been tested, three cell lines derived from such tumors (TBL-1, TBL-8 and TBL-14), as well as a T-cell lymphoma cell line (iTLS-10). […] The cells were incubated for an MTS assay as described elsewhere herein. […]

[5] = test system: tumors derived from Eμ-MYC/BCR^HEL mice; assay: In vivo drug candidate test, transplanted murine B-CLL tumors; design: species or system mouse
Source text: In this experiment, cohorts of 20 mice each were given transplants of tumors derived from Eμ-MYC/BCR^HEL (resemble human B-CLL) mice. […] Part of the cohort was euthanized and evaluated for remission acutely (left set of graphs).

[6] = test system: tumors derived from Eμ-MYC/BCR^HEL/sHEL mice; assay: In vivo drug candidate test, transplanted murine BL tumors; design: species or system mouse; details: transient 7 day treatment, starting 20 days after transplant
Source text: as §1
In another experiment, depicted in FIG. 33, cohorts of 10 mice each were given transplants of tumors derived from Eμ-MYC/BCR^HEL/sHEL (resemble human BL) mice. 20 days later, when the mice presented externally evident signs of disease, they were treated for 7 days with R788. This cohort was observed over time for kinetics and time frame of mortality following transient treatment with R788.

Eμ-MYC/BCR^HEL tumors = assay: Therapeutic trial on transplanted Eμ-MYC/BCR^HEL tumors (B-CLL model); type: in vivo, mouse; details: daily intravenous injections for 7 days
Experimental: Groups of 6 mice were utilized for each of the experimental protocols. Four mice bearing transplanted tumors, and two age and sex matched wild type mice were treated with the same drug and equal frequency. The transplant recipient mice were held until tumors became clinically apparent (approximately 100 days for the Eμ-MYC tumors, 58 days for the Eμ-MYC/BCR^HEL tumors, 21 days for the Eμ-MYC/BCR^HEL/sHEL tumors, and 14 days for the MMTV-rtTA/TRE-MYC/BCR^HEL/sHEL tumors). The mice then received daily injections of the indicated agents for 7 days, as applicable. Mice were either euthanized 24 hours after the last injection of drug, or held indefinitely to ascertain survival. Lymph nodes, spleens and bone marrows were collected and processed to generate single cell suspensions. The cells were counted as described above. An aliquot from the cell suspensions was stained with antibodies for B220, Thy 1.2, Mac-1, IgM^a, B7-2, and CD69, in order to determine the proportion of B-cells, T-cells and myeloid cells, as well as the activation status of the HEL-reactive B-cells. Treatments were performed with cyclosporin A (Bedford laboratories, Bedford Ohio) (2 mg/kg/day), FK506 (Prograf, Fujisawa Healthcare, Deerfield, Ill.) (2 mg/kg/day), rapamycin (Biomol, King of Prussia, Pa.) (2 mg/kg/day), and cyclophosphamide (1 mg/kg/day) (Bristol-Myers Squibb, Princeton, N.J.). […]

[7] = test system: Eμ-MYC, Eμ-MYC/BCR^HEL/sHEL and MMTV-rtTA/TRE-MYC/BCR^HEL/sHEL jaw tumors; details: mouse, in vivo
Experimental: (§3) Groups of 6 mice were utilized for each of the experimental protocols. Four mice bearing transplanted tumors, and two age and sex matched wild type mice were treated with the same drug and equal frequency. The transplant recipient mice were held until tumors became clinically apparent (approximately 100 days for the Eμ-MYC tumors, 58 days for the Eμ-MYC/BCR^HEL tumors, 21 days for the Eμ-MYC/BCR^HEL/sHEL tumors, and 14 days for the MMTV-rtTA/TRE-MYC/BCR^HEL/sHEL tumors). The mice then received daily injections of the indicated agents for 7 days, as applicable. Mice were either euthanized 24 hours after the last injection of drug, or held indefinitely to ascertain survival. Lymph nodes, spleens and bone marrows were collected and processed to generate single cell suspensions. The cells were counted as described above. An aliquot from the cell suspensions was stained with antibodies for B220, Thy 1.2, Mac-1, IgM^a, B7-2, and CD69, in order to determine the proportion of B-cells, T-cells and myeloid cells, as well as the activation status of the HEL-reactive B-cells. Treatments were performed with cyclosporin A (Bedford laboratories, Bedford Ohio) (2 mg/kg/day), FK506 (Prograf, Fujisawa Healthcare, Deerfield, Ill.) (2 mg/kg/day), rapamycin (Biomol, King of Prussia, Pa.) (2 mg/kg/day), and cyclophosphamide (1 mg/kg/day) (Bristol-Myers Squibb, Princeton, N.J.). The therapeutics were suspended in PBS, sterilized by filtration through a 0.22 μm membrane, and administered intravenously through the tail vein.

[8] = test system: MMTV-rtTA/TRE-MYC/BCR^HEL/sHEL tumors (FLL); details: mouse, in vivo
Experimental: (§4) Tumor cells were harvested from lymph nodes and spleens and transplanted. The recipient mice were held until tumors became clinically apparent. Tumor recipient (clear bars) and wild type (filled bars) mice then received daily injections of the indicated drugs for 7 days of either cyclosporine A (csa), FK506, rapamycin (rap) or cyclophosphamide (cyph). The mice were euthanized 24 hours after the last injection of drug, and lymph nodes were harvested for analysis of either total number of cells or surface markers of donor cells (not shown).
(§5) Tumor cells were harvested from lymph nodes and spleens and transplanted as described. The recipient mice were held until tumors became clinically apparent. The mice were then either maintained on a normal mouse diet, or switched on to a diet containing doxycycline, that shut off MYC overexpression. The mice were euthanized at the indicated times, and the lymph nodes were collected, used to generate single cell suspensions, cell counts and flow cytometric analysis.
as §3
(§6) 10^6 cells obtained from tumor-bearing spleen or lymph nodes were transplanted into cohorts of 4-10 mice. […] The tumor bearing and control wild-type mice were then treated daily for seven days with intravenous injections of the various drugs. Mice were either euthanized 24 hours after the last injection of drug, or held indefinitely to ascertain survival. The analysis of tumor burden was performed with cells obtained from lymph nodes and spleens.

[9] = test system: MMTV-rtTA/TRE-MYC/BCR^HEL/sHEL tumors (DLBCL); details: mouse, in vivo
Experimental: as §4, §5, §3, §6

[10] = test system: Eμ-MYC/BCR^HEL/sHEL tumors
Experimental: as §3, §6

[11] = test system: tumors from the jaws of MMTV-rtTA/TRE-MYC/BCR^HEL/sHEL mice; details: daily intravenous injections for 7 days
Experimental: as §3, §6

[12] = daily intravenous injections for 7 days

Q: Which results are given for COc1cc(Nc2ncc(F)c(Nc3ccc4c(n3)NC(=O)C(C)(C)O4)n2)cc(OC)c1OC [R406]?
A: survival of tumor-bearing mice [1]: does not extend the survival; apoptosis (subdiploid population, propidium iodide) (Raji cells [2]): undergo apoptosis; viability of Raji cells (MTS) (Raji cells [3]): dose response decrease in viability; cell viability (MTS) [4]: susceptible

Q: How did the “survival of tumor-bearing mice” value [1] turn out when COc1cc(Nc2ncc(F)c(Nc3ccc4c(n3)N(COP(=O)(O)O)C(=O)C(C)(C)O4)n2)cc(OC)c1OC [R788] was run?
A: Its value is “perished at the same rate and time frame as their untreated, tumor-bearing counterparts”.

Q: What about the “survival versus untreated counterparts” value ([5]; transient 7 day treatment) of the same compound?
A: Its value is “twice as long”.

Q: And the “tumor burden (number of cells in lymph nodes and spleens)” value ([5]; treated for 7 days, starting 24 days after transplant)?
A: The value was “significantly decreased the tumor burden”.

Q: What about the “survival versus untreated counterparts” value [6] of the same compound?
A: The value was “at least twice as long”.

Q: O=P1(N(CCCl)CCCl)NCCCO1 (stereo not shown) [cyclophosphamide] was tested. Which “response of transplanted Eμ-MYC/BCR^HEL tumors to drug” value (Eμ-MYC/BCR^HEL tumors) did it give?
A: Its value is “responded”.

Q: And the “general cytotoxicity (reduction in T cells, myeloid cells, non-transgenic B cells)” value [7]?
A: The value was “more general cytotoxicity”.

Q: What about the “response of the transplanted tumors to drug” value [7] of the same compound?
A: The value was “strong response”.

Q: And the tumor regression [7]?
A: The tumor regression was “tumor regression in each instance”.

Q: And the tumor regression (Eμ-MYC tumors; [12])?
A: Its tumor regression is “tumor regression in all animals”.

Q: And the “response of transplanted Eμ-MYC tumors to drug (tumor burden, lymph nodes and spleens)” value (Eμ-MYC tumors; daily intravenous injections for 7 days, analysed 24 hours after last injection)?
A: The value was “strong response”.

Q: And the “general cytotoxicity (reduction in T-cells, myeloid cells, non-transgenic B-cells)” value (Eμ-MYC tumors; tumor-bearing mice, 7 days treatment)?
A: The value was “more general cytotoxicity”.

Q: And the remission [8]?
A: Its remission is “brief remission”.

Q: And the “survival compared with untreated tumor-bearing mice” value [8]?
A: The value was “died more rapidly than did untreated, tumor-bearing mice”.

Q: And the “response of transplanted MMTV-rtTA/TRE-MYC/BCR^HEL/sHEL tumors to drug” value ([8]; iv)?
A: The value was “responded”.

Q: What about the remission [9] of the same compound?
A: The remission was “brief remission”.

Q: What about the “survival compared with untreated tumor-bearing mice” value [9] of the same compound?
A: The value was “died more rapidly than did untreated, tumor-bearing mice”.

Q: What about the “response of transplanted MMTV-rtTA/TRE-MYC/BCR^HEL/sHEL tumors to drug” value ([9]; iv) of the same compound?
A: Its value is “responded”.

Q: And the remission ([10]; after seven-day treatment)?
A: The remission was “brief remission”.

Q: What about the “survival compared with untreated tumor-bearing mice” value ([10]; after seven-day treatment, observed 100 days) of the same compound?
A: Its value is “died more rapidly than did untreated, tumor-bearing mice”.

Q: And the “response of transplanted Eμ-MYC/BCR^HEL/sHEL tumors to drug” value [10, 12]?
A: The value was “responded”.

Q: What about the “response of transplanted MMTV-rtTA/TRE-MYC/BCR^HEL/sHEL jaw tumors to drug” value [11] of the same compound?
A: Its value is “responded”.
